In the supplement of paper PMC10307832:

Experiments:
Test in all cases: relative viability (nuclei count vs DMSO), 5 days (fraction); higher = more cells survive
EHT 1864 + Navitoclax = compound: C1COCCN1CC2=CC(=O)C(=CO2)OCCCCCSC3=C4C=CC(=CC4=NC=C3)C(F)(F)F [EHT 1864] + CC1(C)CCC(c2ccc(Cl)cc2)=C(CN2CCN(c3ccc(C(=O)NS(=O)(=O)c4ccc(N[C@H](CCN5CCOCC5)CSc5ccccc5)c(S(=O)(=O)C(F)(F)F)c4)cc3)CC2)C1 [Navitoclax] (partner 0.5 µM)
How it was run: (§1)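 Each reported value is a median over duplicate plates. It expresses relative viability: treated-well nuclei count divided by vehicle-well nuclei count. Lung cancer cell lines in 1536-well plates were dosed by pin tool a day after seeding, alone with one drug or with a fixed anchor-drug dose plus five library-drug doses (not always all listed) in √10 steps, and nuclei were counted after 5 days.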

EHT 1864 + Crizotinib = compound: C1COCCN1CC2=CC(=O)C(=CO2)OCCCCCSC3=C4C=CC(=CC4=NC=C3)C(F)(F)F [EHT 1864] + C[C@@H](Oc1cc(-c2cnn(C3CCNCC3)c2)cnc1N)c1c(Cl)ccc(F)c1Cl [Crizotinib] (partner 1 µM)
How it was run: as §1

EHT 1864 + Dasatinib = compound: C1COCCN1CC2=CC(=O)C(=CO2)OCCCCCSC3=C4C=CC(=CC4=NC=C3)C(F)(F)F [EHT 1864] + Cc1nc(Nc2ncc(C(=O)Nc3c(C)cccc3Cl)s2)cc(N2CCN(CCO)CC2)n1 [Dasatinib] (partner 0.075 µM)
How it was run: as §1

EHT 1864 + Vorinostat = compound: C1COCCN1CC2=CC(=O)C(=CO2)OCCCCCSC3=C4C=CC(=CC4=NC=C3)C(F)(F)F [EHT 1864] + O=C(CCCCCCC(=O)Nc1ccccc1)NO [Vorinostat] (partner 1 µM)
How it was run: as §1

| Cell Line | relative viability (EHT 1864 + Navitoclax; first compound 0.04 µM) | relative viability (EHT 1864 + Navitoclax; first compound 0.1265 µM) | relative viability (EHT 1864 + Navitoclax; first compound 0.4 µM) | relative viability (EHT 1864 + Navitoclax; first compound 1.265 µM) | relative viability (EHT 1864 + Navitoclax; first compound 4 µM) | relative viability (EHT 1864 + Crizotinib; first compound 0.04 µM) | relative viability (EHT 1864 + Crizotinib; first compound 0.1265 µM) | relative viability (EHT 1864 + Crizotinib; first compound 0.4 µM) | relative viability (EHT 1864 + Crizotinib; first compound 1.265 µM) | relative viability (EHT 1864 + Crizotinib; first compound 4 µM) | relative viability (EHT 1864 + Dasatinib; first compound 0.04 µM) | relative viability (EHT 1864 + Dasatinib; first compound 0.1265 µM) | relative viability (EHT 1864 + Dasatinib; first compound 0.4 µM) | relative viability (EHT 1864 + Dasatinib; first compound 1.265 µM) | relative viability (EHT 1864 + Dasatinib; first compound 4 µM) | relative viability (EHT 1864 + Vorinostat; first compound 0.04 µM) | relative viability (EHT 1864 + Vorinostat; first compound 0.1265 µM) | relative viability (EHT 1864 + Vorinostat; first compound 1.265 µM) | relative viability (EHT 1864 + Vorinostat; first compound 4 µM) | relative viability (EHT 1864 + Vorinostat; first compound 0.4 µM) |
| --- | --- | --- | --- | --- | --- | --- | --- | --- | --- | --- | --- | --- | --- | --- | --- | --- | --- | --- | --- | --- |
| H3255 | 0.561 | 0.506 | 0.457 | 0.441 | 0.448 | 0.683 | 0.65 | 0.938 | 0.817 | 1 | 0.437 | 0.391 | 0.346 | 0.344 | 0.343 | 0.752 | 0.717 | 0.851 | 0.794 | – |
| EPLC-272H | 1.11 | 1.05 | 1.18 | 1.28 | 1.24 | 0.928 | 0.861 | 0.855 | 0.915 | 1.01 | 0.359 | 0.327 | 0.395 | 0.452 | 0.275 | 0.454 | 0.565 | 0.662 | 0.33 | 0.567 |
| PC-3 [JPC-3] | 0.788 | 0.72 | 0.849 | 0.844 | 0.805 | 0.973 | 0.979 | 0.925 | 0.909 | 1.01 | 1.05 | 0.901 | 0.996 | 1.02 | 0.896 | 0.886 | 0.718 | 0.77 | 0.801 | 0.83 |
| NCI-H1944 | 1.06 | – | 0.985 | 1.05 | 1.06 | 1.18 | – | 1.13 | 1.04 | 1.15 | 0.238 | – | 0.208 | 0.228 | 0.21 | 0.528 | – | 0.514 | 0.661 | 0.595 |
| EKVX | 0.937 | 0.906 | 0.88 | 0.857 | 1.03 | 1.05 | 0.721 | 0.857 | 0.947 | 0.855 | 0.631 | 0.436 | 0.536 | 0.51 | 0.58 | 0.749 | 0.524 | 0.743 | 0.631 | 0.69 |
| ChaGo-K-1 | 1.07 | 0.938 | 0.802 | – | 1.07 | 1.14 | 1.15 | 1.12 | – | 1.01 | 0.587 | 0.551 | 0.619 | 0.602 | 0.616 | 0.785 | 0.76 | 0.811 | 0.76 | 0.72 |
| NCI-H23 | 0.718 | – | 0.627 | 0.784 | 0.816 | 0.488 | – | 0.513 | 0.496 | 0.5 | 0.741 | 0.536 | 0.522 | 0.481 | 0.779 | 0.627 | 0.343 | 0.578 | 0.532 | 0.582 |
| EMC-BAC-2 | 1.09 | 1.09 | 1.12 | 1.13 | 1.2 | 0.752 | 0.616 | 0.72 | 0.749 | 0.817 | 0.359 | 0.342 | 0.338 | 0.276 | 0.325 | 0.45 | 0.383 | 0.427 | 0.504 | 0.503 |
| LOU-NH91 | 0.693 | 0.652 | 0.789 | 0.694 | 0.567 | 0.764 | 0.73 | 0.741 | 0.733 | 0.758 | 0.543 | 0.5 | 0.56 | 0.628 | 0.486 | 0.924 | 0.799 | 0.876 | 0.856 | 1.02 |
| LU99A | 0.689 | 0.566 | 0.716 | 0.818 | 0.933 | 0.604 | 0.489 | 0.575 | 0.593 | 0.537 | 0.482 | 0.413 | 0.613 | 0.564 | 0.436 | 0.58 | 0.347 | 0.579 | 0.324 | 0.426 |
| NCI-H1395 | 1.12 | 1.02 | 1.18 | 0.967 | 0.875 | – | – | – | – | – | 0.48 | 0.386 | 0.426 | 0.418 | 0.407 | 0.775 | 0.552 | 0.607 | 0.681 | 0.819 |
| NCI-H460 | 1.11 | 1.16 | 1.03 | 1.16 | 1.02 | 0.805 | 0.85 | 0.769 | 0.888 | 0.799 | 0.516 | 0.405 | 0.565 | 0.532 | 0.54 | – | 0.718 | 0.654 | 0.647 | 0.703 |
| 201T | 1.27 | 1.2 | 1.22 | 1.15 | 1.16 | 1.05 | 1.03 | 1 | 0.984 | 1 | 0.563 | 0.587 | 0.589 | 0.473 | 0.528 | 0.901 | 0.876 | 0.923 | 0.811 | 1.01 |
| NCI-H2170 | 0.674 | 0.511 | 0.646 | 0.573 | 0.56 | 1.15 | 1.17 | 1.2 | 1.18 | 1.21 | 0.608 | 0.579 | 0.688 | 0.474 | 0.563 | 0.789 | 0.692 | 0.84 | 0.94 | 0.774 |
| NCI-H2405 | 0.978 | 0.832 | 0.965 | – | 0.725 | 0.835 | 0.809 | 0.837 | 0.816 | 0.918 | 0.205 | 0.196 | 0.241 | 0.227 | 0.234 | 1.03 | 0.895 | 0.963 | 0.909 | 1.06 |
| NCI-H1703 | 1.13 | 0.968 | 0.956 | 0.849 | 0.749 | 0.69 | 0.534 | 0.545 | 0.598 | 0.487 | – | – | – | – | – | – | – | – | – | – |
| NCI-H1755 | 1.02 | 0.927 | 0.94 | 0.979 | 0.869 | 0.891 | 0.833 | 0.794 | 0.814 | 0.845 | 0.424 | 0.333 | 0.425 | 0.369 | 0.399 | 1 | 0.808 | 0.75 | 0.811 | 0.748 |
